One may read the IC50 as the concentration at which inhibition is half-maximal.

Structures are written as SMILES. Records with an inconclusive call do not appear.

The assay concerns the target Virion infectivity factor (Human immunodeficiency virus type 1 group M subtype B (isolate BH10)) + Virion infectivity factor (Human immunodeficiency virus type 1 group M subtype B (isolate BRU/LAI)) + Virion infectivity factor (Human immunodeficiency virus type 1 group M subtype B (isolate PCV12)) + Virion infectivity factor (Human immunodeficiency virus type 1 group M subtype B (isolate HXB2)) + DNA dC->dU-editing enzyme APOBEC-3G (Homo sapiens) (UniProt P69720+P69721+P69722+P69723+Q9HC16). The experiment in a line: HIV-1 Vif–A3G interaction blockers – biochemical, TR-FRET, GST-Vif 1-94, biotin-A3G peptide, dose response retest, primary screen (AID 1117319).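 Note: Vif residues 1-94 fused to GST binding biotinylated APOBEC3G peptide 110-148.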 Particulars: TR-FRET GST-Vif / biotin-A3G peptide binding. A general note: In TR-FRET formats the signal depends on donor and acceptor labels being close together.
For `CC(=O)Nc1ccc(S(=O)(=O)N2CCN(Cc3ccccn3)CC2)cc1`, the IC50 was 77.4 µM.

On to `COCCNC(=O)c1ccc(CS(=O)(=O)c2c(Cl)cccc2Cl)o1`, for which the IC50 was 39.9 µM.

On to `Nc1cccc2cc(S(=O)(=O)O)ccc12`, for which the IC50 is 35 µM.

Turning to `Nc1ccc(Nc2ccccc2)c(S(=O)(=O)O)c1`, the IC50 is 5.26 µM.

Take `CCc1cc(=O)oc2cc(C)c(CN3CCCC3)c(O)c12`: the IC50 is 4.07 µM.

As to `Cc1nc2ccc(NC(=O)Cc3cccs3)cc2s1`, the IC50 is 84 µM.

`CCOC(=O)C1=C(C)NC(C)=C(C(=O)OCC)C1c1cn(-c2ccccc2)nc1-c1ccco1`: the IC50 was 31.1 µM.

`NNc1ccc([N+](=O)[O-])c2[nH][nH]c(=O)c12`: the IC50 is 1.93 µM.

Take `N#Cc1ccccc1CN1C(=O)S/C(=C/c2cccn2-c2cccc(C(=O)O)c2)C1=O`: the IC50 was 18.5 µM.

In the case of `O=C(O)c1cccc2c1NC(C(=O)O)C1CC(Sc3ccccc3[N+](=O)[O-])C(Cl)C21` (stereo unspecified), the IC50 was 0.5 µM.

In the case of `CC(C)(C)C(=O)OCc1nc(-c2ccc(O)c(O)c2)cs1`, the 50% inhibitory concentration (IC50) was 17.1 µM.

`O=C(NCc1ccc2c(c1)OCO2)c1cc2ncc(Br)cn2n1`: the IC50 is 33.7 µM.

For the compound `CNc1ccc(Br)cc(C(=O)/C=C/c2ccc3c(c2)OCO3)c1=O`, the IC50 was 21.9 µM.

`c1coc(-c2nc3nc4ccccc4n3nc2-c2ccco2)c1`: the IC50 was 12.3 µM.

In the case of `Cc1cc(C)c([N+](=O)[O-])cc1-c1ccc(/C=N/c2c(-c3ccco3)nc3ccccn23)o1`, the IC50 is 42.4 µM.

Consider `CCOC(=O)Cc1cc(=O)n2[nH]c(C)cc2n1`, for which the IC50 is 75.3 µM.

In the case of `CCOc1cc(N2CCOCC2)c(OCC)cc1NC(C)C(=O)N1CCN(CC)CC1` (stereo unspecified), the IC50 was 23.9 µM.

As for `O=[N+]([O-])c1ccc(N2CCN(c3ccc(Cl)nn3)CC2)c(Cl)c1`, the IC50 was 99.1 µM.

As for `Cc1ccc(S(=O)(=O)OCC(=O)Nc2ccc(C(=O)O)c(O)c2)cc1`, the IC50 is 64.1 µM.

As for `O=C(COC(=O)c1ccccc1)Nc1ncc([N+](=O)[O-])s1`, the IC50 is 6.6 µM.

For `O=C(/C=C/c1ccc(O)c(O)c1)c1ccc(S(=O)(=O)N2CCCCCC2)cc1`, the IC50 was 2.29 µM.

Regarding `COC1=C(Br)C(=O)c2nc(C)ccc2C1=O`, the IC50 was 13.6 µM.

In the case of `O=C1CCCC(O)=C1C=Nc1ccc(O)cc1`, the IC50 was 35.4 µM.

For `CC1Cc2ccccc2N1Cc1nc2cc(C(F)(F)F)ccc2c(=O)[nH]1` (stereo unspecified), the IC50 was 74.5 µM.

As to `Cc1ccc(NC(=O)c2cc(-c3ccc(C)o3)nc3ccccc23)nc1`, the IC50 was 33.6 µM.

In the case of `CCOc1ccc(C(=O)NC(=S)Nc2ccc(N3CCC(C)CC3)cc2)cc1[N+](=O)[O-]`, the IC50 was 55.4 µM.

As to `Cc1cc([N+](=O)[O-])cc2c1NC(c1ccccn1)C1CC=CC21` (stereo unspecified), the IC50 was 3.03 µM.

Turning to `COc1c(OC(C)=O)ccc(/C=C/c2ccc3ccccc3n2)c1[N+](=O)[O-]`, the IC50 is 97.2 µM.

Consider `C=C(C)C(=O)Nc1cccc(C2=NOC3(C2)C[C@H](C(N)=O)N(C(=O)C(c2ccccc2)c2ccccc2)C3)c1` (stereo partly specified), for which the IC50 is 2.41 µM.

Regarding `Nc1nc(Sc2ccc([N+](=O)[O-])c3nonc23)c2[nH]cnc2n1`, the IC50 is 10.9 µM.

Regarding `O=C(O)C1Nc2ccc(Br)cc2C2C=CCC12` (stereo unspecified), the IC50 was 1.56 µM.

As for `Cc1ccc(C)n1-c1cccc(C(=O)O)c1`, the IC50 was 0.72 µM.

On to `O=[N+]([O-])c1c(NCCO)cc(Sc2nc3ccccc3s2)c2nonc12`, for which the half-maximal inhibitory concentration (IC50) was 34.9 µM.

Regarding `O=c1cc(-c2ccc(O)c(O)c2)oc2cc(O)c(C3OC(CO)C(O)C(O)C3O)c(O)c12` (stereo unspecified), the IC50 is 12.7 µM.

For `CC1(C)CC(Nc2ccc(Nc3ccccc3)cc2)CC(C)(C)N1`, the IC50 is 7.13 µM.

`COC1=C(OC)C(=O)C(Sc2ccc3ccccc3c2)=CC1=O`: the IC50 is 8.68 µM.

On to `Cc1cnc(NC(=O)CSc2nnc(CNc3ccc(F)cc3)n2CC2CCCO2)s1` (stereo unspecified), for which the IC50 is 53 µM.

`CCN1/C(=C/C=C/C=C/C=C/c2sc3ccccc3[n+]2CC)Sc2ccccc21`: the IC50 is 4.33 µM.

Take `O=C(Nc1ccc(F)cc1)C(c1ccccc1)N1CCN(S(=O)(=O)c2ccc3ccccc3c2)CC1` (stereo unspecified): the IC50 is 13.5 µM.

Turning to `O=C(CCCN1C(=O)/C(=C\c2ccco2)SC1=S)Nc1cccc2ccccc12`, the IC50 was 2.56 µM.

On to `CCCCN1C(=O)/C(=C/C=C/c2ccco2)C(=O)NC1=S`, for which the IC50 is 4.61 µM.

For the compound `CC[n+]1c(/C=C2\C=C(C)CC(C)(C)C2)sc2ccccc21`, the IC50 is 57.9 µM.

In the case of `FC(F)(F)c1cc(-c2ccco2)nc(NCc2ccco2)n1`, the IC50 was 4.24 µM.

On to `CCOC(=O)C(=O)Cc1cccnn1`, for which the IC50 was 0.65 µM.

Take `COc1ccc(OC)c(Nc2nc(-c3ccc(O)c(O)c3)cs2)c1`: the IC50 is 4.19 µM.

With `CNc1c(C(=O)O)ccc2c1C(=O)c1ccccc1C2=O`, the IC50 was 25 µM.

Take `COC(=O)c1ccc(=O)c2nc3/c(=C/O)c(O)cc(=O)c3[nH]c12`: the IC50 is 0.35 µM.

For the compound `Cc1cc(-c2csc(NC(=O)c3ccc(C#N)cc3)n2)c(C)n1Cc1ccco1`, the IC50 is 3.35 µM.

For the compound `Cc1[nH]c2ccccc2c1C1=CC(=O)C=CC1=O`, the IC50 was 4.25 µM.

In the case of `O=C(Nc1ccn(-c2ccccc2)n1)c1ccccc1Br`, the IC50 was 10.6 µM.

For `N#Cc1ccc(CSc2nnc(Cc3cccs3)n2Cc2ccco2)cc1`, the IC50 was 46.5 µM.

With `C=CCn1c(SCC(=O)c2cc(C)n(C(C)COC)c2C)nc2sc(C)c(C)c2c1=O` (stereo unspecified), the IC50 is 27.1 µM.

Turning to `CCCSC1=N/C(=C\c2ccc([N+](=O)[O-])o2)C(=O)S1`, the IC50 was 12.9 µM.

`O=C(COC(=O)Cc1ccc(Cl)cc1)NCc1ccco1`: the IC50 is 7.37 µM.

For the compound `Clc1ccc(/C=N/c2c(-c3ccco3)nc3ccccn23)cc1`, the IC50 is 14.1 µM.

As to `O=C(CCS(=O)(=O)c1ccc(Br)cc1)NCCc1ccccc1`, the IC50 was 28.9 µM.

As to `CCOC(=O)/C=C1\SCC(=O)N1CC(=O)NC(C)c1ccc(F)cc1` (stereo unspecified), the IC50 is 28.8 µM.

With `Oc1c(CN2CCOCC2)cc(CN2CCOCC2)c(O)c1O`, the IC50 is 9.18 µM.

In the case of `COc1ccc(-c2cc(-c3ccco3)[nH]c(=O)c2C#N)cc1`, the IC50 was 25.3 µM.

Consider `c1ccc2c(c1)CCCN2Cc1nnc2n1CCCCC2`, for which the IC50 is 31.5 µM.

On to `Oc1ccc(-c2cn3c(n2)SCC3)cc1O`, for which the IC50 is 1.11 µM.

`CC(C)CCNC(=O)Cn1c2c(c(-c3ccccc3Cl)cc1=O)CCC2`: the IC50 was 19.7 µM.

Consider `CCOc1ccc(-n2c(=O)c3c(C)c(C)sc3n(CC(=O)NCc3ccco3)c2=O)cc1`, for which the IC50 is 74.9 µM.

Regarding `CCOC(=O)CNc1ccc2c(c1)OCO2`, the IC50 is 2.46 µM.

In the case of `O=C(NCCc1ccccc1)c1ccc2nc(-c3ccco3)c(-c3ccco3)nc2c1`, the IC50 is 3.01 µM.

With `COc1ccc(-c2nc3ccccc3n2OC(=O)N(C)C)cc1`, the IC50 is 42.9 µM.

For the compound `O=C(CCCCCN1C(=O)CCC1=O)Nc1ccc(Cl)c(C(F)(F)F)c1`, the IC50 was 3.93 µM.

For `CC(C)(C)c1ccc(-c2nnc(SCCC#N)n2C2CCCC2)cc1`, the IC50 is 86.7 µM.

`N#Cc1ccc(N2CCN(C(=O)c3cccc(F)c3)CC2)c(F)c1`: the IC50 was 91 µM.

For the compound `CCOc1ccc(CNc2ccc(N3CCCC3)cc2)cc1`, the IC50 was 6.59 µM.

Regarding `Cn1cccc1C(=O)NC(=O)COC(=O)CC12CC3CC(CC(Br)(C3)C1)C2`, the IC50 was 58.5 µM.

As for `Cc1cc(F)ccc1S(=O)(=O)Nc1ccccc1C(=O)Nc1ccc2[nH]c(=O)[nH]c2c1`, the IC50 is 78 µM.

As to `COC(=O)c1ccccc1NC(=O)CCS(=O)(=O)c1ccc(Br)cc1`, the IC50 was 1.49 µM.

Turning to `COc1cc(C(=O)NCC(c2ccco2)N2CCCC2)ccc1OCc1c(C)noc1C` (stereo unspecified), the half-inhibitory concentration (IC50) was 99.2 µM.

For `NC(=O)Cn1c(=O)n(Cc2ccco2)c(=O)c2c3c(sc21)CCCCC3`, the IC50 was 3.8 µM.

As for `Cn1c(N)c(C(=O)COC(=O)C2CCCCC2)c(=O)n(C)c1=O`, the IC50 is 92.9 µM.

On to `Cc1cc2c(N)cccc2nn1`, for which the IC50 is under 0.195 µM.

With `Oc1ccc(/C=N/NC2=NCCCCC2)c(O)c1`, the IC50 is 4.9 µM.

Take `Cc1noc(C)c1COc1ccc(C(=O)OCC(=O)N2c3ccccc3NC(=O)C2(C)C)cc1`: the IC50 is 14.9 µM.

With `CC(=O)c1sc(C(=O)O)c(-c2ccco2)c1-c1ccco1`, the IC50 is 9.78 µM.

For `Cc1c(F)cccc1NC(=O)CCCCCC1NC(=O)NC1C` (stereo unspecified), the half-inhibitory concentration (IC50) was 0.78 µM.

Consider `Cc1ccc(NC(=O)c2ccc(Cl)c(N3C(=O)C=CC3=O)c2)cc1`, for which the IC50 is 81.2 µM.

For the compound `CN(CC(=O)Nc1ccc(F)cc1)C(=O)c1cc(-c2ccco2)nc2ccccc12`, the IC50 was 5.48 µM.

Regarding `O=C(CSc1nnnn1-c1ccccc1)Nc1ncc2c(n1)CC(c1ccco1)CC2=O` (stereo unspecified), the IC50 was 12.6 µM.

Regarding `NC(=O)C[C@@H]1N[C@]2(C(=O)Nc3ccccc32)[C@@H]2C(=O)N(c3cc(C(F)(F)F)ccc3Cl)C(=O)[C@H]12`, the IC50 was 55.5 µM.

Turning to `Cc1nc2nc(C)c(CCC(=O)N3CCN(c4ccccc4)CC3)c(C)n2n1`, the IC50 is 59.5 µM.

As to `COc1ccc(NC(=O)CN(C)C(=O)c2cc(-c3ccco3)nc3ccccc23)cc1`, the 50% inhibitory concentration (IC50) is 4.87 µM.

For the compound `O=C1CC(Nc2ccc(N3CCOCC3)cc2)C(=O)N1C1CCCCC1` (stereo unspecified), the IC50 is 2.74 µM.

In the case of `CC(C)CN(C(=O)CN1CCN(c2ccc(O)cc2)CC1)c1c(N)n(CC(C)C)c(=O)[nH]c1=O`, the IC50 is 12.3 µM.

As for `O=C(CCCN1C(=O)/C(=C\c2ccco2)SC1=S)Nc1ccc2ccccc2c1`, the IC50 is 7.25 µM.

Take `CCOC(=O)C1=C(C)N=c2s/c(=C/c3ccco3)c(=O)n2C1c1cccc(OC)c1` (stereo unspecified): the IC50 is 33 µM.

With `COc1ccccc1NC(=O)c1cc2ccccc2o/c1=N\O`, the IC50 was 67.4 µM.

Regarding `CCN(CC)c1ccc(C2NC(=O)NC(C)=C2C(=O)Nc2ccccc2)cc1` (stereo unspecified), the IC50 is 84.4 µM.

`O=[N+]([O-])c1ccc(/C=N/Nc2nc(N3CCCC3)nc(N3CCCC3)n2)o1`: the IC50 was 54.2 µM.

Consider `Cc1ccc(C)n1Cc1ccc(C(=O)O)cc1`, for which the IC50 was 1.55 µM.

For the compound `O=C(Nc1ccccc1)C1=C(O)CC(c2ccco2)CC1=Nc1ccccc1` (stereo unspecified), the IC50 was 15.1 µM.

Values taken from PubChem BioAssay AID1117319 (Southern Research Institute, 2015).
